1 compound from patent US10987349B2, “Antitumor agent and bromodomain inhibitor” (FUJIFILM Corporation, priority 2016, dated 2021) can be followed below.

One experiment deals with Jurkat. Put plainly: Cell growth test (Cell Titer Blue) Jurkat. The experiment is classed as cell-based. Conditions: Homo sapiens, 72 h, Acute lymphoblastic leukemia, 3 days. How it is done: (§1) Moreover, the compound of Example 14 was subjected to a cell growth test using various types of cell lines.
(§2) All cell lines other than the below-noticed cells were each seeded in a well plate, in which an RPMI-1640 medium supplemented with penicillin/streptomycin and FBS with a final concentration of 10% was placed. The human prostate cancer cell line VCaP (ATCC) was seeded in a well plate, in which DMEM medium supplemented with penicillin/streptomycin and FBS with a final concentration of 10% was placed. […] Thereafter, using Enspire Multimode Plate Reader (PerkinElmer), the amount of fluorescence at an excitation wavelength of 531 nm and a fluorescence wavelength of 615 nm was measured. Since the amount of fluorescence is in proportion to the concentration of a florescent product resorufin that is converted from resazurin as a redox dye by living cells, the amount of fluorescence was used as an indicator of the number of living cells. The growth inhibition percentage of the test compound in each concentration was calculated according to the following equation. Growth inhibition percentage (%)=(amount of fluorescence in test compound−added well)/(amount of fluorescence in DMSO−added well)×100 […]

The next experiment has as its system HEXIM1 gene. Put plainly: Expression of HEXIM1 gene in MV4-11 cells, RT-PCR. The experiment is classed as cell-based, human. Conditions: MV4-11 cells, 10, 30 or 100 nmol/L, 6 hours. The protocol: (§3) A fluctuation in the expression of c-Myc, IL-7R and HEXIM1 genes in MV4-11 (ATCC) cells treated with the test compound was analyzed according to a reverse transcription polymerase chain reaction (RT-PCR) method.
(§4) MV4-11 cells were cultured for 6 hours in an RPMI-1640 medium supplemented with penicillin/streptomycin and FBS with a final concentration of 10%, to which the compound of Example 14 was added to a concentration of 10 nmol/L, 30 nmol/L or 100 nmol/L. On the other hand, a non-treatment group (Non-treatment) was established by culturing MV4-11 cells for 6 hours in the above-described medium, to which the compound of Example 14 was not added. Using Rneasy (registered trademark) (Qiagen), RNA was extracted from the above-described MV4-11 cells in accordance with the instruction manual included with the aforementioned device. […] Thereafter, a PCR reaction was carried out for 40 cycles (a cycle consisting of 95° C.-5 seconds and 60° C.-30 seconds.) Subsequently, the obtained reaction product was measured.
(§5) As a housekeeping gene, the expression level of GAPDH (Glyceraldehyde 3-phosphate dehydrogenase) was also evaluated. The ratio of the expression level of the mRNA of each of c-Myc, IL-7R and HEXIM1 to the expression level of GAPDH was calculated, and the expression level of each gene (relative expression level) was then quantified. […]

A further experiment relates to PANC-1. Put plainly: Cell growth test (Cell Titer Blue) PANC-1. The experiment is classed as cell-based. Conditions: Homo sapiens, 72 h, PANC-1, Pancreatic cancer, 3 days. How it is done: as §1, §2
In general terms: The colour change of resazurin is a common sign of viable cells or microbes.

A further experiment concerns HOP-62. Put plainly: Cell growth test (Cell Titer Blue) HOP-62. The experiment is classed as cell-based. The following applies: Homo sapiens, 72 h, HOP-62, Lung cancer, 3 days. The protocol: as §1, §2
The test system of the next experiment is U-937. In words: Cell growth test (Cell Titer Blue) U-937. The experiment is classed as cell-based. Conditions: Homo sapiens, 72 h, U-937, Lymphoma, 3 days. The protocol: as §1, §2
In the next experiment the test system is MM.1S. In words: Cell growth test (Cell Titer Blue) MM.1S. Conditions: Homo sapiens, MM1.S, 72 h, Myeloma, 3 days. It counts as cell-based. The protocol:
as §1, §2

In a further experiment the test system is CCRF-CEM. In words: Cell growth test (Cell Titer Blue) CCRF-CEM. The following applies: Homo sapiens, 72 h, Acute lymphoblastic leukemia, 3 days. The experiment is classed as cell-based. How it is done:
as §1, §2

The next experiment relates to NOMO-1. Put plainly: Cell growth test (Cell Titer Blue) NOMO-1. The experiment is classed as cell-based. The following applies: Homo sapiens, 72 h, NOMO-1, Acute myeloid leukemia, 3 days. How it is done: as §1, §2
The next experiment concerns SW-620. Put plainly: Cell growth test (Cell Titer Blue) SW-620. It counts as cell-based. Conditions: Homo sapiens, 72 h, SW-620, Colon cancer, 3 days. The protocol:
as §1, §2

The next experiment has as its system MDA-MB-468. Put plainly: Cell growth test (Cell Titer Blue) MDA-MB-468. The following applies: Homo sapiens, 72 h, MDA-MB-468, Breast cancer, 3 days. The experiment is classed as cell-based. How it is done: as §1, §2
A further experiment relates to SK-HEP-1. In words: Cell growth test (Cell Titer Blue) SK-HEP-1. The experiment is classed as cell-based. Conditions: Homo sapiens, SK-HEP1, 72 h, SK-HEP-1, Liver cancer, 3 days. The protocol: as §1, §2
In the next experiment the test system is DU-145. Put plainly: Cell growth test (Cell Titer Blue) DU-145. Conditions: Homo sapiens, 72 h, DU-145, Prostate cancer, 3 days. It counts as cell-based. How it is done: as §1, §2
In the next experiment the test system is HT-29. Put plainly: Cell growth test (Cell Titer Blue) HT-29. It counts as cell-based. The following applies: Homo sapiens, 72 h, HT-29, Colon cancer, 3 days. The protocol: as §1, §2
The test system of a further experiment is IL-7R gene. Put plainly: Expression of IL-7R gene in MV4-11 cells, RT-PCR. It counts as cell-based, human. Conditions: MV4-11 cells, 10, 30 or 100 nmol/L, 6 hours. The protocol:
as §3, §4, §5

The test system of another experiment is T-24. In words: Cell growth test (Cell Titer Blue) T-24. The following applies: Homo sapiens, 72 h, T-24, Bladder cancer, 3 days. The experiment is classed as cell-based. How it is done:
as §1, §2

Another experiment relates to A2780. Put plainly: Cell growth test (Cell Titer Blue) A2780. The experiment is classed as cell-based. Conditions: Homo sapiens, 72 h, A2780, Ovarian cancer, 3 days. The protocol: as §1, §2
Another experiment deals with T47D. Put plainly: Cell growth test (Cell Titer Blue) T47D. It counts as cell-based. Conditions: Homo sapiens, 72 h, Breast cancer, 3 days. How it is done: as §1, §2
The test system of another experiment is KG-1A. In words: Cell growth test (Cell Titer Blue) KG-1A. It counts as cell-based. The following applies: Homo sapiens, 72 h, Acute myeloid leukemia, 3 days. How it is done:
as §1, §2

A word on the GI50: it is the concentration that inhibits growth by half. A lower GI50 goes with greater sensitivity of the cells. For `CCn1c(=O)cc(C2CCN(C)CC2)c2cc(C(=O)N(C)c3ccc(C)cc3)ccc21` [Example 14, 1-Ethyl-N-methyl-N-(4-methylphenyl)-4-(1-methylpiperidin-4-yl)-2-oxo-1,2-dihydroquinoline-6-carboxamide], the GI50 with Jurkat turned out to be 129 nM; with PANC-1 it was 2980 nM; with HOP-62, 143 nM; with U-937, 286 nM; with MM.1S, 84 nM; in the experiment on CCRF-CEM, 65 nM. Further, the 50% growth inhibitory concentration (GI50) worked out at 62 nM in the experiment on NOMO-1; 273 nM in the experiment on SW-620; 1200 nM with MDA-MB-468; 2500 nM in the experiment on SK-HEP-1; 1430 nM with DU-145; 120 nM in the experiment on HT-29. Besides, the GI50 in the experiment on T-24 stood at 3040 nM; in the experiment on A2780, 582 nM; with T47D, 286 nM; with KG-1A, 119 nM. Moreover, in the experiment with HEXIM1 gene, the “mRNA expression of HEXIM1 (GAPDH correction)” value is given as “increased”. In the experiment on IL-7R gene, the “mRNA expression of IL-7R (GAPDH correction)” value is “decreased in a compound concentration-dependent manner”.
